Laboratory results from patent US20230014907A1, “INHIBITORS OF APOL1 AND METHODS OF USING SAME” (Vertex Pharmaceuticals Incorporated, priority 2020, published 2023).
Where a name gives a salt, the structure may show the parent alone.

Assays:
G1 APOL1 = biological target: T1, G1 APOL1 (Homo sapiens, UniProt O14791, I384M/S342G); assay: Acute APOL1 Thallium Assay with Inducible Stable Clones of HEK 293 Cells; format: cell-based; details: HEK 293 inducible stable clones, G1 APOL1; read-out: Thallium Assay (IC50)
T1 construct: expressed in transfected cells
T1 sequence (O14791 28-398 S342G/I384M): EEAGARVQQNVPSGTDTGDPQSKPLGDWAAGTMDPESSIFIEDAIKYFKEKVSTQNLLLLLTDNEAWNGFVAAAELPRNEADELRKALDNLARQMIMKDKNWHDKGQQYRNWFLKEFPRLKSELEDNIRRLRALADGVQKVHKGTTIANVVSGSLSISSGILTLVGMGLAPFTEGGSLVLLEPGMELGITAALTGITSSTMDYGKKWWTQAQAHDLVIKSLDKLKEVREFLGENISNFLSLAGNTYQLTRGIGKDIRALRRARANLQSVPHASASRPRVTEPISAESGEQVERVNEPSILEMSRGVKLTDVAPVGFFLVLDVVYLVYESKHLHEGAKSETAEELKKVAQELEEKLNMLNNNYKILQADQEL
Outline: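 HEK293 T-Rex cells with a stable tetracycline-inducible G1 APOL1 construct (clone DC3.25) were induced with tetracycline at plating, 26000 cells per well, then incubated at 37° C. They were loaded with an AM-ester thallium-sensitive dye and stimulated with Tl+. The fluorescence rise measured Tl+ influx through APOL1 pores.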

APOL1 G1 Protein = biological target: T2, APOL1 G1 Protein (Homo sapiens, UniProt O14791, I384M/S342G); assay: Trypanosoma brucei brucei Lysis Assay Using APOL1 Recombinant Protein (AlamarBlue viability); format: cell-based; details: read-out: Trypanosomal Assay (IC50)
T2 sequence (O14791 28-398 S342G/I384M): T1 sequence (O14791 28-398 S342G/I384M)
Source text: Trypanosoma brucei brucei is a blood stream parasite to which human, gorillas and baboon are immune due to the presence of the APOL1 protein in their HDL particles. The protein is uptaken by the parasite via the TbHpHb receptor located in its flagellar pocket and is bonded by the Hpr protein contained in the HDL particles which triggers the receptor endocytosis by the parasite.
Following endocytosis, the formed vesicle containing the HDL particle matures from early to late endosome, and subsequently to lysosome. The concomitant pH change in the lumen of the vesicle triggers the insertion of the APOL1 protein into the membrane of the late endosome/lysosome and hereby triggers lysosomal membrane permeabilization and as a further downstream event, trypanosome lysis. Trypanosoma brucei brucei is sensitive to lysis by all three APOL1 variants (G0, G1, and G2).
The Trypanosoma brucei brucei lysis assay is a lysis assay of the parasite using recombinant APOL1 protein variant followed by a fluorescent detection method of viability by the addition of AlamarBlue reagent to the assay well, a general metabolic redox indicator (AlamarBlue assay).
Briefly, the AlamarBlue active compound, the resazurin, a blue, water soluble, non-toxic and cell permeable molecule, which can be followed by absorbance, is reduced by various metabolic pathways into resorufin, a red compound which can be followed by either absorbance or fluorescence. The assay allows the calculation of the percent viability (percent of living Trypanosomes remaining in each well) at the end of a lysis relative to the untreated condition by interpolation of fluorescent values (FLU) on a standard curve with a known amount of seeded trypanosome/well.
Trypanosoma brucei brucei (ATCC, Cat. No. PRA-382) • Lister 427 VSG 221 bloodstream form.
Thaw/Expansion Media (ATCC Medium 2834 Modified HMI-9 Medium)
Assay Media (No Phenol Red/No FBS): Make on Day of Use
Hypoxanthine Stock (100×)-9 (10×)
Equipment • E1-Clip Tip pipette 12 channel adjustable 2-125 μL, Cat. No. 4672070BT • ThermoFisher MultiDrop 384, Cat. No. 5840300 • Multidrop • Agilent Bravo, Cat. No. G5409A • Bravo • SpectraMax M5
Trypanosoma brucei brucei Culture
Step 2, Day 4 • Centrifuge at 800×g for 5 minutes at room temperature. • Resuspend in 1 mL media. • Make a 1:25 fold dilution (10 μL/240 μL media). • Count on a hemocytometer (after adding parasites). • Let sit for 1-2 minutes for the parasites to settle. • Count should be approximately 100 viable motile parasites/16 grid or approximately 25×10^6 parasites/flask. • Passage the parasites by adding 1×10^6 parasites/T75 flask in 20 mL media. • Passage the parasites by adding 2.33×10^6 parasites/T175 flask in 46.6 mL media. • For every T75 flask should make enough for approximately 1.5×384 well assay plates. • For every T175 flask should make enough for approximately 3.8×384 well assay plates.
Step 3, Day 6 • Centrifuge at 800×g for 5 minutes. • Resuspend in 3 mL assay media (No phenol red, no FBS) per 75 starting flask. • Resuspend in 7 mL assay media (No phenol red, no FBS) per 175 flask • Make a 1:25 fold dilution. • Count by hemocytometer. • Every T75 flask set up should have approximately 75×10^6 parasites/flask (verify doubling time=8.7 hours±1 hour). • Every T175 flask set up should have approximately 175×10^6 parasites/flask (verify doubling time=8.7 hours±1 hour). • Require 46×10^6 parasites per 384 well plate (at 120,000 parasites per well). […]

Row | IC50 (G1 APOL1) | Structure (SMILES) | IC50 (APOL1 G1 Protein)
1 | > 1000 nM | O=C(CCc1c(-c2ccc(F)cc2)[nH]c2c(F)cc(F)cc12)Nc1ccon1 [Compound 160] | > 1000 nM
2 | < 250 nM | C[C@H](CO)NC(=O)CCc1c(-c2ccc(F)cc2)[nH]c2c(F)cc(Br)cc12 [Compound 227, 3-[5-bromo-7-fluoro-2-(4-fluorophenyl)-1H-indol-3-yl]-N-[(1R)-2-hydroxy-1-methyl-ethyl]propanamide] | < 250 nM
3 | 250 to 1000 nM | O=C(CCc1c(-c2ccc(F)cc2)[nH]c2ccc(F)cc12)N[C@@H]1CCC[C@@H]1O [Compound 15] | 250 to 1000 nM
4 | < 250 nM | O=C(CCc1c(-c2ccc(F)cc2)[nH]c2c(F)cc(F)cc12)NC1(CO)CCC1 [Compound 91, 3-[5,7-difluoro-2-(4-fluorophenyl)-1H-indol-3-yl]-N-[1-(hydroxymethyl)-cyclobutyl]propanamide] | < 250 nM
5 | > 1000 nM | CC(C)(C)OC(=O)NC1CN(C(=O)CCc2c(-c3ccc(F)cc3)[nH]c3ccc(F)cc23)C1 [Compound 52] | > 1000 nM
6 | 250 to 1000 nM | O=C(CCc1c(-c2ccc(F)cc2)[nH]c2ccc(F)cc12)N[C@H]1CC[C@H]1O [Compound 14] | 250 to 1000 nM
7 | > 1000 nM | O=C(CCc1c(-c2ccc(F)cc2)[nH]c2c(F)cc(F)cc12)NCc1cn(CC(F)(F)F)cn1 [Compound 168] | > 1000 nM
8 | > 1000 nM | O=C(CCc1c(-c2ccc(F)cc2)[nH]c2ccc(F)cc12)NC1CCCNC1=O (centres unmarked) [Compound 26] | > 1000 nM
9 | > 1000 nM | O=C(CCc1c(-c2ccc(F)cc2)[nH]c2ccc(F)cc12)Nc1cn[nH]c1 [Compound 46] | > 1000 nM
10 | 250 to 1000 nM | CC(=O)NCCSc1c(-c2ccc(F)cc2)[nH]c2ccccc12 [Compound 510, N-[2-[[2-(4-fluorophenyl)-1H-indol-3-yl]sulfanyl]ethyl]acetamide] | 250 to 1000 nM
11 | > 1000 nM | CC1(NC(=O)CCc2c(-c3ccc(F)cc3)[nH]c3ccc(F)cc23)COC1 [Compound 16] | 250 to 1000 nM
12 | > 1000 nM | COCCN(C)C(=O)CCc1c(-c2ccc(F)cc2)[nH]c2c(F)cc(F)cc12 [Compound 156] | > 1000 nM
13 | > 1000 nM | Cc1cnc(NC(=O)CCc2c(-c3ccc(F)cc3)[nH]c3c(F)cc(F)cc23)s1 [Compound 178] | > 1000 nM
14 | 250 to 1000 nM | O=C(CCc1c(-c2ccc(F)cc2)[nH]c2ccc(F)cc12)NC1CC1(F)F (centres unmarked) [Compound 45] | > 1000 nM
15 | > 1000 nM | CCC(C)(O)CNC(=O)CCc1c(-c2ccc(F)cc2)[nH]c2ccc(F)cc12 (centres unmarked) [Compound 74] | > 1000 nM
16 | > 1000 nM | C[C@@H](CO)N(C)C(=O)CCc1c(-c2ccc(F)cc2)[nH]c2c(F)cc(F)cc12 [Compound 149] | > 1000 nM
17 | > 1000 nM | CC(C)(C)OC(=O)NC1CCN(C(=O)CCc2c(-c3ccc(F)cc3)[nH]c3ccc(F)cc23)C1 (centres unmarked) [Compound 34] | > 1000 nM
18 | > 1000 nM | O=C(CCc1c(-c2ccc(F)cc2)[nH]c2ccc(F)cc12)NC1(c2ccccc2)CC1 [Compound 65] | > 1000 nM
19 | > 1000 nM | C[C@@H](CO)NC(=O)CCc1c(-c2ccc(F)cc2)[nH]c2ccc(F)cc12 [Compound 31] | 250 to 1000 nM
20 | > 1000 nM | O=C(CCc1c(-c2ccc(F)cc2)[nH]c2c(F)cc(F)cc12)Nc1cccnc1 [Compound 174] | > 1000 nM

Row | IC50 (G1 APOL1) | Structure (SMILES) | IC50 (APOL1 G1 Protein)
21 | > 1000 nM | CC(C)(NC(=O)CCc1c(-c2ccc(F)cc2)[nH]c2c(F)cc(F)cc12)C(F)(F)F [Compound 182] | > 1000 nM
22 | > 1000 nM | O=C(CCc1c(-c2ccc(F)cc2)[nH]c2c(F)cc(F)cc12)Nc1nnco1 [Compound 151] | > 1000 nM
23 | > 1000 nM | NCC1CCCCN1C(=O)CCc1c(-c2ccc(F)cc2)[nH]c2ccc(F)cc12 (centres unmarked) [Compound 53] | > 1000 nM
24 | > 1000 nM | O=C(CCc1c(-c2ccc(F)cc2)[nH]c2ccc(F)cc12)NCCCO [Compound 85] | > 1000 nM
25 | > 1000 nM | O=C(CCc1c(-c2ccc(F)cc2)[nH]c2c(F)cc(F)cc12)NCc1ncco1 [Compound 153] | > 1000 nM
26 | 250 to 1000 nM | O=C(CCc1c(-c2ccc(F)cc2)[nH]c2ccc(F)cc12)NCC(F)F [Compound 24] | > 1000 nM
27 | < 250 nM | C[C@H](CO)NC(=O)CCc1c(-c2ccc(F)cc2)[nH]c2ccc(F)cc12 [Compound 8] | < 250 nM
28 | > 1000 nM | O=C(CCc1c(-c2ccc(F)cc2)[nH]c2ccc(F)cc12)N1CC(O)C1 [Compound 58] | > 1000 nM
29 | > 1000 nM | O=C(CCc1c(-c2ccc(F)cc2)[nH]c2ccc(F)cc12)N[C@H]1CNC[C@@H]1O [Compound 2, 3-[5-fluoro-2-(4-fluorophenyl)-1H-indol-3-yl]-N-[(3S,4S)-4-hydroxypyrrolidin-3-yl]propanamide hydrochloride] | > 1000 nM
30 | > 1000 nM | CS(=O)(=O)NC(=O)CCc1c(-c2ccc(F)cc2)[nH]c2c(F)cc(F)cc12 [Compound 93, 3-[5,7-difluoro-2-(4-fluorophenyl)-1H-indol-3-yl]-N-methylsulfonyl-propanamide] | > 1000 nM
31 | > 1000 nM | CC(C)(C)OC(=O)N[C@H]1C[C@@H](NC(=O)CCc2c(-c3ccc(F)cc3)[nH]c3ccc(F)cc23)C1 [Compound 83] | > 1000 nM
32 | 250 to 1000 nM | C#CC(CO)CNC(=O)CCc1c(-c2ccc(F)cc2)[nH]c2c(F)cc(F)cc12 (centres unmarked) [Compound 118] | 250 to 1000 nM
33 | > 1000 nM | O=C(CCc1c(-c2ccc(F)cc2)[nH]c2c(F)cc(F)cc12)Nc1cnoc1 [Compound 146] | > 1000 nM
34 | > 1000 nM | O=C(CCc1c(-c2ccc(F)cc2)[nH]c2c(F)cc(F)cc12)N1CCCC1CCO (centres unmarked) [Compound 136] | > 1000 nM
35 | > 1000 nM | CC(CN)NC(=O)CCc1c(-c2ccc(F)cc2)[nH]c2ccc(F)cc12 (racemic) [Compound 5] | > 1000 nM
36 | < 250 nM | O=C(CCc1c(-c2ccc(F)cc2)[nH]c2c(F)cc(F)cc12)N[C@@H](CO)C(F)(F)F [Compound 121] | < 250 nM
37 | > 1000 nM | CC1(NC(=O)CCc2c(-c3ccc(F)cc3)[nH]c3c(F)cc(F)cc23)CCOC1 (racemic) [Compound 152] | > 1000 nM
38 | 250 to 1000 nM | COCC(C)NC(=O)CCc1c(-c2ccc(F)cc2)[nH]c2ccc(F)cc12 (racemic) [Compound 30] | 250 to 1000 nM
39 | > 1000 nM | CC(C)(C)OC(=O)NC1CCC(NC(=O)CCc2c(-c3ccc(F)cc3)[nH]c3ccc(F)cc23)C1 (centres unmarked) [Compound 60] | > 1000 nM
40 | > 1000 nM | O=C(CCc1c(-c2ccc(F)cc2)[nH]c2c(F)cc(F)cc12)NC1CCCNC1=O (centres unmarked) [Compound 113] | 250 to 1000 nM
